Measurements: patent US20110077239A1, “GLYCINE RECEPTOR AGONISTS FOR THE TREATMENT OF PHANTOM PHENOMENA” (priority 2007, published 2011)

Tests used:
inner ear = settings: chronic local administration to the inner ear of guinea pigs; high frequencies; cited from earlier work
auditory nerve = experiment: Measurements of compound action potentials (CAP) of the auditory nerve after local administration; assay type: in vivo, rat
From the text: In the experiments adult female Wistar rats (Charles River, Sulzfeld, Germany) in the age of 2 to 4 months were used.
To get an access to the inner ear (cochlea) the middle ear is opened by surgery: A small opening behind the ear drum enables the access to the round window of the cochlea, in the massive bone of the bony labyrinth this is the only non-traumatic access to the inner ear. A silver wire electrode having a surface melted silver pearl is carefully positioned through the opening on the membrane of the round window, secured with tissue glue and the opening is closed with dental cement. The silver wire is conducted in the neck of the animal through the skin towards the outside and can then directly be connected to the electrophysiology amplifier for the measurements. The direct electrical access through the CAP electrode enables the direct largely interference-free down lead of the compound potentials of the auditory nerves resulting from an acoustic stimulation. In the signal response, besides the compound action potentials of the auditory nerves (CAP), also the formation of the excitation in the outer hair sense cells (OHC) can be detected as cochlea microphone potentials (CM). These three potentials in the measurements in vivo provide information on: 1) the activity of the auditory nerve close to the threshold up to high levels of acoustic pressure and, therefore, also on the modulation of the transmission, which is mediated by a glycinergic efferent feedback to the afferences of the IHCs, 2) the integrity of the IHCs (via the course of the SPs at increasing levels of acoustic pressures), 3) the amplification by the OHC (through the phase synchronicity of the CM signals with the auditory stimulus).
For this purpose the compound action potentials were activated by different sound stimuli (broadband click stimuli, pure sounds having frequencies of between 4 and 32 kHz, and degrees of loudness from 0 to 100 dB SPL).

Row | Compound | efferent activity and threshold shift after acoustic trauma (inner ear) | amplitude of the CAP signals two days after local administration (auditory nerve; 2 days after LA, high and low degrees of loudness, in relation to the untreated condition) | CAP amplitudes at high degrees of loudness after local administration (auditory nerve; local administration at round window niche, taurine 5 μl of a 50 mM solution, strychnine 5 μl of a 10 mM solution, high degrees of loudness) | CAP amplitudes at low to medium degrees of loudness after local administration (auditory nerve; local administration at round window niche, taurine 5 μl of a 50 mM solution, low to medium degrees of loudness) | amplitude of the CAP signal within 1-3 hours after local administration (auditory nerve; within 1-3 hours after local administration, measurements at 8 kHz, FIG. 7)
1 | O=C1C[C@@H]2OCC=C3CN4CC[C@]56c7ccccc7N1[C@H]5[C@H]2[C@H]3C[C@H]46 [strychnine] | disrupts efferent activity and results in a permanent threshold shift | – | – | – | –
2 | NCCS(=O)(=O)O [taurine] | – | still reduced | overlapping of the CAP amplitude function | increase slower | reduction of the amplitude of the CAP signals
